This is an account of results in ChEMBL document CHEMBL4725243, “High-Throughput Screening for the Discovery of Enzyme Inhibitors” (J Med Chem, 2020).

The test addresses Immunoglobulin A1 protease autotransporter (Haemophilus influenzae (strain ATCC 51907 / DSM 11121 / KW20 / Rd), UniProt P44969). In words: Inhibition of Haemophilus influenzae Rd IGA1 protease expressed in Escherichia coli BL21(DE3) preincubated for 1 hr followed by substrate addition and measured after 2 hrs by sandwich ELISA.

Immunoglobulin A1 protease autotransporter, sequence (P44969 26-1014 limits assumed): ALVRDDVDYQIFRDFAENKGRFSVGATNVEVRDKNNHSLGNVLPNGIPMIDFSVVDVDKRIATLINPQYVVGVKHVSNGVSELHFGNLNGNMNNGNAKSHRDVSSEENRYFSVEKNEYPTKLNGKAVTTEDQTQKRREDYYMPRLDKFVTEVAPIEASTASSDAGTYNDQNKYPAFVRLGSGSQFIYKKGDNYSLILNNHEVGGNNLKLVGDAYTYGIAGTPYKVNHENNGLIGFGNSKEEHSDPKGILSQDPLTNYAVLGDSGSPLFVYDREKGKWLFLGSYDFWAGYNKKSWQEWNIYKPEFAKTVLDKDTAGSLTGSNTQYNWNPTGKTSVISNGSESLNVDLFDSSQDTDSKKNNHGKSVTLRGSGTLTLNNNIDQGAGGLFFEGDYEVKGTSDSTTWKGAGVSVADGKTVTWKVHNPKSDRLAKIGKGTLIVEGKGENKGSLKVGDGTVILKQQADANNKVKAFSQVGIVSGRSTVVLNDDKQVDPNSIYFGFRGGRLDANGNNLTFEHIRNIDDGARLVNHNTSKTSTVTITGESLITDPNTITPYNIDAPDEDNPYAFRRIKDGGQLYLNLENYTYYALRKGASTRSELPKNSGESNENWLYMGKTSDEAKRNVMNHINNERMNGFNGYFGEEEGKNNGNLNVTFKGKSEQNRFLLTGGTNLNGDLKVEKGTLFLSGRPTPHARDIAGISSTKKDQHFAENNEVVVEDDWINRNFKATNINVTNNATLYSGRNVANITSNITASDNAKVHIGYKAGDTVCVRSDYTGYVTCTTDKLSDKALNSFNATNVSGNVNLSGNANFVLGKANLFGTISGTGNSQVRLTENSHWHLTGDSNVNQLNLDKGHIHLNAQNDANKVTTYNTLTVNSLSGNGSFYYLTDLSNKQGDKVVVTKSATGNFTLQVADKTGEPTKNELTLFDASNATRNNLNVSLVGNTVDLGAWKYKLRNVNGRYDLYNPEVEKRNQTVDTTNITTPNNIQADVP

The compound `O=C(Oc1nsnc1N1CCOCC1)c1ccccc1` came in with an IC50 of 5.9 µM. In turn, `O=C(Oc1nsnc1N1CCCCC1)C1CCOCC1` showed an IC50 of 3.7 µM.
